Results on 40 compounds are retold here after patent publication US9057090B2, “Method of identifying an agent for inhibiting odor of pyrazine derivatives” (Kao Corporation, priority 2012, dated 2015).

The term inhibition denotes the relative decrease from the control value, in per cent.

The target of one experiment is T1, olfactory receptor OR5K1 (Homo sapiens, UniProt Q8NHB7).
T1 construct: expressed in transfected cells; host or cells: HEK293
T1 sequence (Q8NHB7 1-308): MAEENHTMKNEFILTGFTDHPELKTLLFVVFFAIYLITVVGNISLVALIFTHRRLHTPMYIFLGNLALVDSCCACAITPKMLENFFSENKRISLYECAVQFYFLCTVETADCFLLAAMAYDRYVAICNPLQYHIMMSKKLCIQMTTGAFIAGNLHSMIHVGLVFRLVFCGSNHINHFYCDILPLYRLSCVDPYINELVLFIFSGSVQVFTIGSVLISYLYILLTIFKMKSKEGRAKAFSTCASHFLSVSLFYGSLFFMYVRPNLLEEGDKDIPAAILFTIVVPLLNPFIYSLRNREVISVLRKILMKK
Description: Antagonist assay: inhibition of OR5K1 response to 2,6-dimethylpyrazine (luciferase reporter). The format is cell-based. The note with it: HEK293 cells expressing OR5K1; 2,6-dimethylpyrazine 1 mM + test substance 300 μM (cytotoxic flavoring agents re-evaluated at 333 μM + 100 μM); read-out: Inhibition rate (receptor response-inhibiting rate). As for the experimental part:
The receptor response-inhibiting rate of a test substance was calculated as follows. The receptor activity (X−Y) by stimulation with 2,6-dimethylpyrazine alone was determined by subtracting the luminescence value (Y) in cells to which the receptor was introduced but were not stimulated with 2,6-dimethylpyrazine from the luminescence value (X) derived from firefly luciferase induced by stimulation with 2,6-dimethylpyrazine alone. Similarly, the receptor activity (Z−Y) in the presence of a test substance was determined by subtracting the luminescence value (Y) in cells not stimulated with 2,6-dimethylpyrazine from the luminescence value (Z) stimulated with a mixture of 2,6-dimethylpyrazine and the test substance. The reduction rate of the receptor activity (Z−Y) in the presence of a test substance to the receptor activity (X−Y) by stimulation with 2,6-dimethylpyrazine alone was calculated by the following computation expression: Inhibition rate (%)={1−(Z−Y)/(X−Y)}×100, to determine the receptor response-inhibiting rate of the test substance. In the measurement, multiple independent experiments were performed in duplicate, and the average of each experiment was used.
Turning to `CCCCCC1=C(C)CCC1=O` [dihydrojasmon, 2-pentyl-3-methyl-2-cyclopenten-1-one], the inhibition at 300 µM was ≥ 40%.

Regarding `CC1(C)CCCC2(C)C1CCC1(C)OCCC12` (stereo not shown) [Ambrotech, dodecahydro-3a,6,6,9a-tetramethyl-naphtho[2,1-b]furan], the inhibition at 300 µM is ≥ 50%.

As to `CC(=O)c1cc2c(cc1C)C(C)(C)C(C)CC2(C)C` (stereo not shown) [Tonalid, 1-(5,6,7,8-tetrahydro-3,5,5,6,8,8-hexamethyl-2-naphthalenyl)-ethanone], the inhibition at 300 µM was ≥ 75%.

On to `CC(C)=CCCC(C)CC=O` (stereo not shown) [citronellal, 3,7-dimethyl-6-octenal], for which the inhibition at 300 µM is ≥ 50%.

For the compound `CCC(=CCC1CC=C(C)C1(C)C)CO` (stereo not shown) [bacdanol, 2-ethyl-4-(2,2,3-trimethyl-3-cyclopenten-1-yl)-2-buten-1-ol], the inhibition at 300 µM is ≥ 75%.

`CCC=C(C)C(O)CCCCC` (stereo not shown) [undecavertol, 4-methyl-3-decen-5-ol]: the inhibition at 300 µM is ≥ 75%.

Regarding `C=CCCC(=O)C1=CCCC(C)(C)C1` [Dynascone, 1-(5,5-dimethyl-1-cyclohexen-1-yl)-4-penten-1-one], the inhibition at 300 µM is ≥ 40%.

`CC(C)=CCCC(C)CCOCC=O` (stereo not shown) [citronellyloxyacetaldehyde, 6,10-dimethyl-3-oxa-9-undecenal]: the inhibition at 300 µM was ≥ 40%.

With `O=C1CCCCCCCCCCCC(=O)OCCO1` [ethylene brassylate, 1,4-dioxacyclo-heptadecane-5,17-dione], the inhibition at 300 µM is ≥ 40%.

Take `CC(=CCC1CC=C(C)C1(C)C)CO` (stereo not shown) [Sandalmysore Core, 2-methyl-4-(2,2,3-trimethyl-3-cyclopenten-1-yl)-2-buten-1-ol]: the inhibition at 300 µM is ≥ 50%.

As to `C=CCc1ccc(O)c(OC)c1` [eugenol, 1-allyl-3-methoxy-4-hydroxybenzene], the inhibition at 300 µM is ≥ 40%.

On to `CC=CC(=O)C1=C(C)C=CCC1(C)C` [damascenone, 1-(2,6,6-trimethyl-1,3-cyclohexadien-1-yl)-2-buten-1-one], for which the inhibition at 300 µM is ≥ 40%.

Take `CC(=O)C1(C)CC2=C(CCCC2(C)C)CC1C` (stereo not shown) [Iso E Super, 7-acetyl-1,2,3,4,5,6,7,8-octahydro-1,1,6,7-tetramethyl-naphthalene]: the inhibition at 300 µM is ≥ 75%.

For `O=C(OCCc1ccccc1)c1ccccc1O` [phenylethyl salicylate], the inhibition at 300 µM was ≥ 75%.

For the compound `CC(C=O)c1ccccc1` (stereo not shown) [hydratropic aldehyde, 2-phenyl-propionaldehyde], the inhibition at 300 µM was ≥ 50%.

Turning to `CCC(O)COC1CCCCC1C(C)(C)C` (stereo not shown) [Amber Core, 1-(2-tert-butylcyclohexyloxy)-2-butanol], the inhibition at 300 µM is ≥ 75%.

Consider `CC=Cc1ccc(OCc2ccccc2)c(OC)c1` [benzyl isoeugenol, 2-methoxy-1-(phenylmethoxy)-4-(1-propenyl)-benzene], for which the inhibition at 300 µM is ≥ 50%.

Turning to `CC(C=O)C1CCCCC1` (stereo not shown) [Pollenal II, 2-cyclohexylpropanal], the inhibition at 300 µM is ≥ 50%.

In the case of `C=C(OCC)C1C(C)(C)CC(=O)CC1(C)C` [kephalis, 4-(1-ethoxyvinyl)-3,3,5,5-tetramethyl cyclohexanone], the inhibition at 300 µM is ≥ 50%.

Regarding `CC(C)CCCC(C)CCO` (stereo not shown) [tetrahydrogeraniol, 3,7-dimethyl-1-octanol], the inhibition at 300 µM is ≥ 50%.

`CC(C)[C@H]1CC[C@@H](CO)CC1` [mayol, cis-4-isopropyl-cyclohexylmethanol]: the inhibition at 300 µM is ≥ 40%.

Consider `CC(C)=CCCC(C)=CC=O` [citral, 3,7-dimethyl-2,6-octadienal], for which the inhibition at 300 µM is ≥ 75%.

For the compound `Cc1ccc(C(C)C)c(O)c1` [thymol, 5-methyl-2-(1-methylethyl)-phenol], the inhibition at 300 µM is ≥ 75%.

With `CC(=O)c1cc(C(C)(C)C)cc2c1C=CC2(C)C` [celestolide, 6-tert-butyl-1,1-dimethylinden-4-yl methyl ketone], the inhibition at 300 µM is ≥ 40%.

Take `CC(C)=CCC/C(C)=C/CO` [geraniol, (E)-3,7-dimethyl-2,6-octadien-1-ol]: the inhibition at 300 µM was ≥ 40%.

Take `CC(=O)O[C@]1(C)CC[C@@]23C[C@@H]1C(C)(C)[C@@H]2CC[C@H]3C` [cedryl acetate]: the inhibition at 300 µM was ≥ 50%.

Regarding `CC(=O)c1c(C)c([N+](=O)[O-])c(C(C)(C)C)c([N+](=O)[O-])c1C` [musk ketone, 4-tert-butyl-2,6-dimethyl-3,5-dinitro-acetophenone], the inhibition at 300 µM was ≥ 40%.

Turning to `CC(=O)C1=C(C)C2CC3(C1)C(C)CCC3C2(C)C` (stereo not shown) [acetyl cedrene, 1-(2,3,4,7,8,8a-hexahydro-3,6,8,8-tetramethyl-1H-3a,7-methanoazulen-5-yl)-ethanone], the inhibition at 300 µM was ≥ 50%.

Take `CCCCCCOC(=O)c1ccccc1O` [hexyl salicylate]: the inhibition at 300 µM is ≥ 40%.

Regarding `CC(C=O)Cc1ccc(C(C)(C)C)cc1` (stereo not drawn) [lilial, α-methyl-β-(p-tert-butylphenyl)-propionaldehyde], the inhibition at 300 µM is ≥ 50%.

Turning to `O=CC=Cc1ccccc1` [cinnamaldehyde], the inhibition at 300 µM is ≥ 50%.

Tested on in the next experiment: not listed separately
Description: Sensory test of reduction of the odor of 2,6-dimethylpyrazine in dough. The note with it: flavoring agent 0.5 μL added to dough 0.5 g containing 1% 2,6-dimethylpyrazine; four panelists; rating 1 to 5; FIG. 3. As for the experimental part: A flavoring agent (0.5 μL) was added to dough (0.5 g) containing 2,6-dimethylpyrazine (1%, and the odor thereof was evaluated by comparing the strength of odor of 2,6-dimethylpyrazine in dough not applied with flavor by the flavoring agent. The sensory evaluation test was performed by four panelists. In the evaluation, a case where a strong odor of 2,6-dimethylpyrazine was smelled was rated as 1, and a case where the odor of 2,6-dimethylpyrazine was not smelled at all was rated as 5.
As to `CCC=C(C)C(O)CCCCC` (stereo not shown) [undecavertol, 4-methyl-3-decen-5-ol], the “odor of 2,6-dimethylpyrazine in sensory test” value (“odor of 2,6-dimethylpyrazine” for short) is on record as “inhibited”.

Consider `C=CCCC(=O)C1=CCCC(C)(C)C1` [Dynascone, 1-(5,5-dimethyl-1-cyclohexen-1-yl)-4-penten-1-one], for which the “odor of 2,6-dimethylpyrazine” value is listed as “inhibited”.

With `CC(C=O)Cc1ccc2c(c1)OCO2` (stereo not drawn) [helional, α-methyl-3,4-methylenedioxyhydrocinnamic aldehyde], the “odor of 2,6-dimethylpyrazine” value is “inhibited”.

With `CC(=O)c1ccc2ccccc2c1` [β-methyl naphthyl ketone], the “odor of 2,6-dimethylpyrazine” value was “inhibited”.

As to `CC(=CCC1CC=C(C)C1(C)C)CO` (stereo not shown) [Sandalmysore Core, 2-methyl-4-(2,2,3-trimethyl-3-cyclopenten-1-yl)-2-buten-1-ol], the “odor of 2,6-dimethylpyrazine” value is on record as “inhibited”.

On to `CC=CC(=O)C1=C(C)C=CCC1(C)C` [damascenone, 1-(2,6,6-trimethyl-1,3-cyclohexadien-1-yl)-2-buten-1-one], for which the “odor of 2,6-dimethylpyrazine” value was “inhibited”.

`CCC(O)COC1CCCCC1C(C)(C)C` (stereo not shown) [Amber Core, 1-(2-tert-butylcyclohexyloxy)-2-butanol]: the “odor of 2,6-dimethylpyrazine” value is “inhibited”.

With `CC(=O)C=CC1=C(C)CCCC1(C)C` [β-ionone, 4-(2,6,6-trimethyl-1-cyclohexen-1-yl)-3-buten-2-one], the “odor of 2,6-dimethylpyrazine” value is “inhibited”.

For “ethyl-(3aα,4α,7α,3aα)-octahydro-4,7-methano-3aH-indene-3a-carboxylate [Fruitate]”, the “odor of 2,6-dimethylpyrazine” value is “inhibited”.

For `CC1C/C=C/CCCCCCCCCC(=O)C1` (stereo not shown) [δ-muscenone, (5E)-3-methylcyclopenta-5-decen-1-one], the “odor of 2,6-dimethylpyrazine” value is given as “inhibited”.

For `CCCCCCC(C=O)=Cc1ccccc1` [α-hexylcinnamic aldehyde], the “odor of 2,6-dimethylpyrazine” value was “inhibited”.

With `CC1=CC(C)C(C=O)CC1` (stereo not shown) [triplal, 2,4-dimethyl-3-cyclohexene-1-carboxyaldehyde], the “odor of 2,6-dimethylpyrazine” value is “inhibited”.

For the compound `CCCCCCCC1CCC(=O)O1` (stereo not shown) [γ-undecalactone], the “odor of 2,6-dimethylpyrazine” value is “inhibited”.

`CC(=O)/C(C)=C/C1C(C)=CCCC1(C)C` (stereo not drawn) [α-isomethyl ionone]: the “odor of 2,6-dimethylpyrazine” value is given as “inhibited”.

In the case of `CC(C=O)Cc1ccc(C(C)(C)C)cc1` (stereo not drawn) [lilial, α-methyl-β-(p-tert-butylphenyl)-propionaldehyde], the “odor of 2,6-dimethylpyrazine” value is listed as “inhibited”.
